This experiment addresses T1, mouse TRPM3α2 (mTRPM3) ion channel (Mus musculus, UniProt J9SQF3).
T1 construct: expressed in transfected cells; host or cells: flip-in HEK293
The experiment is described as follows: TRPM3 ion channel driven Ca2+ uptake, Fluo-4 AM assay in overexpressing flip-in HEK293 cells. The class given is cell-based. Particulars: inhibition of Ca2+ influx stimulated with Pregnenolone sulfate (PS) 50 μM. As for the experimental part:
Monitoring the TRPM3 Ion Channel Driven Ca^2+ Uptake.
In order to monitor the inhibition of the mouse TRPM3α2 (mTRPM3) ion channel by the compounds of the invention, a cellular system making use of an mTRPM3alpha2 or hTRPM3 overexpressing cell line (flip-in HEK293) was used. The TRPM3 channel was stimulated/opened with Pregnenolone sulfate (PS) (50 μM) which results in Ca^2+ influx.
For mTRPM3, the intracellular Ca^2+ was measured with a Calcium responsive dye, Fluor-4 AM ester (Invitrogen). Cells were cultured until a confluence of 80-90%, washed with Versene (Invitrogen) and detached from the surface by a short incubation with 0.05% Trypsin (Invitrogen). The trypsination process was stopped by the addition of complete cell culture medium (DMEM, glutamax,10% FCS, NEAA, Pen-Strep). Cells were collected and resuspended in Krebs buffer without Calcium at RT.
Prior the cell seeding (+2000 cells/well into a black, 384 well plate (Greiner)) the diluted compound was added in the assay plate, together with the PS dissolved in Krebs buffer containing Calcium. […] Directly after cell addition the plates were read on an Envision fluorescence reader (Perkin Elmer) by an Excitation of 485 nm and emission at 535 nm.
Channel inhibition was calculated compared to a non-PS stimulated control versus a condition stimulated with PS (50 μM) with vehicle. The ability of the compounds of the invention to inhibit this activity was determined as: Percentage inhibition=[1-((RFU determined for sample with test compound present - RFU determined for sample with positive control inhibitor) divided by (RFU determined in the presence of vehicle - RFU determined for sample with positive control inhibitor))]*100.
The activities of the Example compounds tested are depicted in the table below. The activity ranges A, B and C refer to IC50 values in the Fluo-4 AM assay as follows: “A”: IC50<1 μM; “B”: 1 μM<IC50<20 μM and “C”: IC50>20 μM
T1 sequence (J9SQF3 1-1709 isoform J9SQF3-12): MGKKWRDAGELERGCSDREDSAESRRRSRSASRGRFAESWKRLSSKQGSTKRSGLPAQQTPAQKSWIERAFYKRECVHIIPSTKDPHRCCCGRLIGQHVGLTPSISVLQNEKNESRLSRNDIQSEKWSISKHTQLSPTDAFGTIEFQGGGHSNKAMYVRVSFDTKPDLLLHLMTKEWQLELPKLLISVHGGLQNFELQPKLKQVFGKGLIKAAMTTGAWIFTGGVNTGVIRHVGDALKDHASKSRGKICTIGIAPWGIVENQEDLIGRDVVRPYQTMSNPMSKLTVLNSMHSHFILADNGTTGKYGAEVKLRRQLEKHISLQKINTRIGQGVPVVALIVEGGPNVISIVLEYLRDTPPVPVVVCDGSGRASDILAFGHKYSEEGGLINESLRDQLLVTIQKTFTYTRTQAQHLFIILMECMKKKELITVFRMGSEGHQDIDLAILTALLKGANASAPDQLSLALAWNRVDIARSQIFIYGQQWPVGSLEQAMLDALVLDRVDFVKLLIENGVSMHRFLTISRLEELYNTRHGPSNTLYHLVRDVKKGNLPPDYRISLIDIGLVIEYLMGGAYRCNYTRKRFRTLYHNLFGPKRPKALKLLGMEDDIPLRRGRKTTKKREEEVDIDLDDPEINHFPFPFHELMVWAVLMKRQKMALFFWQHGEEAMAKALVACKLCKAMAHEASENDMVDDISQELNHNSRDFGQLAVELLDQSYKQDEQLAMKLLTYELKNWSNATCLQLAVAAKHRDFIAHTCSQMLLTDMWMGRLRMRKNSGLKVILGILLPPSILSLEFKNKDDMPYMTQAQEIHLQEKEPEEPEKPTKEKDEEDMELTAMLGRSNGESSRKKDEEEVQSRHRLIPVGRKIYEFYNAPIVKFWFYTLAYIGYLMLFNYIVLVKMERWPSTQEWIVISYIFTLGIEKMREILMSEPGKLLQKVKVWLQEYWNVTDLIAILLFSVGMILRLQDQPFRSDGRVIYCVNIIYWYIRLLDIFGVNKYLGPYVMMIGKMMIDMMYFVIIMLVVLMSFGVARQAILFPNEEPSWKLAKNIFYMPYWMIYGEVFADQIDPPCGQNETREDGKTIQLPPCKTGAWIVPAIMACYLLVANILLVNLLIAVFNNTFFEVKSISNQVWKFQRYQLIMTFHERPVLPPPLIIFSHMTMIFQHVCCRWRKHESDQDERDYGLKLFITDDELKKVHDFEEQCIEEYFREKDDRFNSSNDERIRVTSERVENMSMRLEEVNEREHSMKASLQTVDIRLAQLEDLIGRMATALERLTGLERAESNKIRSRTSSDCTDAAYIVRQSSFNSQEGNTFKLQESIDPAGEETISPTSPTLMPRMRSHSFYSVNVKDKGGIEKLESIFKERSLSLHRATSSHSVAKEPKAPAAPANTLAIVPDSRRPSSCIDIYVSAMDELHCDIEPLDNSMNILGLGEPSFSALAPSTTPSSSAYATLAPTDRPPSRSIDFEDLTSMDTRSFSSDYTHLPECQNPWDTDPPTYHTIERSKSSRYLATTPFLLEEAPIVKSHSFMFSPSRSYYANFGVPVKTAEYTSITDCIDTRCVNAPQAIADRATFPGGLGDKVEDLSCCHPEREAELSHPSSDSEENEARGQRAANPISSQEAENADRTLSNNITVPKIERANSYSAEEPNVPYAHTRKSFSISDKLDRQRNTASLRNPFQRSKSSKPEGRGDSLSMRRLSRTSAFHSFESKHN
As to `Cc1oc2ccc(OCc3cccnc3C(F)(F)F)cc2c1C1(CO)CC1` [Cpd 001, [1-(2-methyl-5-{[2-(trifluoromethyl)pyridin-3-yl]methoxy}-1-benzofuran-3-yl)cyclopropyl]methanol], the IC50 is less than 1000 nM.
With `Cc1ncsc1COc1ccc2oc(C)c(-c3ncc(CO)o3)c2c1` [Cpd 002, (2-{2-methyl-5-[(4-methyl-1,3-thiazol-5-yl)methoxy]-1-benzofuran-3-yl}-1,3-oxazol-5-yl)methanol], the IC50 was less than 1000 nM.
As to `Cc1oc2ccc(OCc3cccnc3C(F)(F)F)cc2c1C1(NC(=O)CO)CC1` [Cpd 003, 2-hydroxy-N-[1-(2-methyl-5-{[2-(trifluoromethyl)pyridin-3-yl]methoxy}-1-benzofuran-3-yl)cyclopropyl]acetamide], the IC50 was less than 1000 nM.
For the molecule `Cc1ncsc1COc1ccc2oc(C)c(C3(CO)CC3)c2c1` [Cpd 004, (1-{2-methyl-5-[(4-methyl-1,3-thiazol-5-yl)methoxy]-1-benzofuran-3-yl}cyclopropyl)methanol], the IC50 was less than 1000 nM.
In turn, `Cc1oc2ccc(OCc3cccnc3C(F)(F)F)cc2c1C1(NS(=O)(=O)C2CC2)CC1` [Cpd 005, N-[1-(2-methyl-5-{[2-(trifluoromethyl)pyridin-3-yl]methoxy}-1-benzofuran-3-yl)cyclopropyl]cyclopropanesulfonamide] showed an IC50 of less than 1000 nM.
`Cc1oc2ccc(OCc3cccnc3C(F)(F)F)cc2c1C1(NS(C)(=O)=O)CC1` [Cpd 006, N-[1-(2-methyl-5-{[2-(trifluoromethyl)pyridin-3-yl]methoxy}-1-benzofuran-3-yl)cyclopropyl]methanesulfonamide]: the IC50 is less than 1000 nM.
Regarding `Cc1ncsc1COc1ccc2oc(C)c(-c3ncc(CO)[nH]3)c2c1` [Cpd 007, (2-{2-methyl-5-[(4-methyl-1,3-thiazol-5-yl)methoxy]-1-benzofuran-3-yl}-1H-imidazol-4-yl)methanol], the IC50 was less than 1000 nM.
With `COCCC(=O)NC1(c2c(C)oc3ccc(OCc4cccnc4C(F)(F)F)cc23)CC1` [Cpd 008, 3-methoxy-N-[1-(2-methyl-5-{[2-(trifluoromethyl)pyridin-3-yl]methoxy}-1-benzofuran-3-yl)cyclopropyl]propanamide] the figure was less than 1000 nM; with `Cc1oc2ccc(OCc3cccnc3C(F)(F)F)cc2c1C1(NC(=O)C(C)(C)O)CC1` [Cpd 009, 2-hydroxy-2-methyl-N-[1-(2-methyl-5-{[2-(trifluoromethyl)pyridin-3-yl]methoxy}-1-benzofuran-3-yl)cyclopropyl]propanamide], less than 1000 nM; with `COCC(=O)NC1(c2c(C)oc3ccc(OCc4cccnc4C(F)(F)F)cc23)CC1` [Cpd 010, 2-methoxy-N-[1-(2-methyl-5-{[2-(trifluoromethyl)pyridin-3-yl]methoxy}-1-benzofuran-3-yl)cyclopropyl]acetamide], less than 1000 nM.
With `Cc1ncsc1COc1ccc2oc(C)c(C3(C#N)CC3)c2c1` [Cpd 011, 1-{2-methyl-5-[(4-methyl-1,3-thiazol-5-yl)methoxy]-1-benzofuran-3-yl}cyclopropane-i-carbonitrile] the figure was less than 1000 nM; with `Cc1oc2ccc(OCc3cccnc3C(F)(F)F)cc2c1C1(NCC(N)=O)CC1` [Cpd 012, 2-{[1-(2-methyl-5-{[2-(trifluoromethyl)pyridin-3-yl]methoxy}-1-benzofuran-3-yl)cyclopropyl]amino}acetamide], less than 1000 nM; with `Cc1oc2ccc(OCc3cccnc3C(F)(F)F)cc2c1C1(NS(=O)(=O)CC2CC2)CC1` [Cpd 013, 1-cyclopropyl-N-[1-(2-methyl-5-{[2-(trifluoromethyl)pyridin-3-yl]methoxy}-1-benzofuran-3-yl)cyclopropyl]methanesulfonamide], less than 1000 nM.
As for `Cc1oc2ccc(OCc3cccnc3C(F)(F)F)cc2c1C1(N)CC1` [Cpd 014, 1-(2-methyl-5-{[2-(trifluoromethyl)pyridin-3-yl]methoxy}-1-benzofuran-3-yl)cyclopropan-1-amine], the IC50 was in the range of 1000 to 20000 nM.
Under `Cc1oc2ccc(OCc3cccnc3C(F)(F)F)cc2c1C1(NC(C)C(N)=O)CC1` (centres unmarked) [Cpd 015, 2-{[1-(2-methyl-5-{[2-(trifluoromethyl)pyridin-3-yl]methoxy}-1-benzofuran-3-yl)cyclopropyl]amino}propanamide] stands 1000 to 20000 nM; under `Cc1oc2ccc(OCc3cccnc3C(F)(F)F)cc2c1C1(CN)CC1` [Cpd 016, 1-[1-(2-methyl-5-{[2-(trifluoromethyl)pyridin-3-yl]methoxy}-1-benzofuran-3-yl)cyclopropyl]methanamine], 1000 to 20000 nM.
Regarding `Cc1ncsc1COc1ccc2oc(C)c(C3(NC(=O)CO)CC3)c2c1` [Cpd 017, 2-hydroxy-N-(1-{2-methyl-5-[(4-methyl-1,3-thiazol-5-yl)methoxy]-1-benzofuran-3-yl}cyclopropyl)acetamide], the half-maximal inhibitory concentration (IC50) is 1000 to 20000 nM.
With `Cc1oc2ccc(OCc3cccnc3O)cc2c1C1=NC(CO)(CO)CO1` [Cpd 018, 3-[({3-[4,4-bis(hydroxymethyl)-4,5-dihydro-1,3-oxazol-2-yl]-2-methyl-1-benzofuran-5-yl}oxy)methyl]pyridin-2-ol] the figure was 1000 to 20000 nM; with `Cc1oc2ccc(OCc3ccccc3)cc2c1C1(C#N)CC1` [Cpd 019, 1-[5-(benzyloxy)-2-methyl-1-benzofuran-3-yl]cyclopropane-1-carbonitrile], 1000 to 20000 nM; with `Cc1ncsc1COc1ccc2oc(C)c(C3(C(=O)NCCO)CC3)c2c1` [Cpd 020, N-(2-hydroxyethyl)-1-{2-methyl-5-[(4-methyl-1,3-thiazol-5-yl)methoxy]-1-benzofuran-3-yl}cyclopropane-1-carboxamide], 1000 to 20000 nM.
`Cc1oc2ccc(OCc3ccccc3)cc2c1C1(CO)CC1` [Cpd 021, {1-[5-(benzyloxy)-2-methyl-1-benzofuran-3-yl]cyclopropyl}methanol] returned an IC50 of 1000 to 20000 nM.
`Cc1ncsc1COc1ccc2oc(C)c(C3(C(N)=O)CC3)c2c1` [Cpd 022, 1-{2-methyl-5-[(4-methyl-1,3-thiazol-5-yl)methoxy]-1-benzofuran-3-yl}cyclopropane-1-carboxamide]: the half-inhibitory concentration (IC50) was 1000 to 20000 nM.
`Cc1oc2ccc(OCc3c(F)cccc3Cl)cc2c1-c1nn[nH]n1` [Cpd 023, 5-{5-[(2-chloro-6-fluorophenyl)methoxy]-2-methyl-1-benzofuran-3-yl}-2H-1,2,3,4-tetrazole] registered an IC50 of 1000 to 20000 nM.
For `Cc1oc2ccc(OCc3ccccn3)cc2c1C1(N)CC1` [Cpd 024, 1-{2-methyl-5-[(pyridin-2-yl)methoxy]-1-benzofuran-3-yl}cyclopropan-i-amine], the IC50 lay in the range of 1000 to 20000 nM.
Regarding `Cc1oc2ccc(OCC3CC3)cc2c1C1(N)CC1` [Cpd 025, 1-[5-(cyclopropylmethoxy)-2-methyl-1-benzofuran-3-yl]cyclopropan-i-amine], the concentration for half-maximal inhibition (IC50) is greater than 20000 nM.
`Cc1ncc(COc2ccc3oc(C)c(C4(N)CC4)c3c2)s1` [Cpd 026, 1-{2-methyl-5-[(2-methyl-1,3-thiazol-5-yl)methoxy]-1-benzofuran-3-yl}cyclopropan-i-amine]: the IC50 was greater than 20000 nM.
Under `Cc1ncsc1COc1ccc2oc(C)c(C3(N)CC3)c2c1` [Cpd 027, 1-{2-methyl-5-[(4-methyl-1,3-thiazol-5-yl)methoxy]-1-benzofuran-3-yl}cyclopropan-i-amine] stands greater than 20000 nM.
With `Cc1noc(-c2c(C)oc3ccc(OCc4c(F)cccc4Cl)cc23)n1` [Cpd 028, 5-{5-[(2-chloro-6-fluorophenyl)methoxy]-2-methyl-1-benzofuran-3-yl}-3-methyl-1,2,4-oxadiazole] the figure was greater than 20000 nM.
`Cc1oc2ccc(OCc3ccccc3)cc2c1-c1cncc(CC(F)(F)F)n1` [Cpd 029, 2-[5-(benzyloxy)-2-methyl-1-benzofuran-3-yl]-6-(2,2,2-trifluoroethyl)pyrazine]: the half-inhibitory concentration (IC50) is greater than 20000 nM.
With `Cc1oc2ccc(OCc3ccccc3)cc2c1-c1nccc(CC(F)(F)F)n1` [Cpd 030, 2-[5-(benzyloxy)-2-methyl-1-benzofuran-3-yl]-4-(2,2,2-trifluoroethyl)pyrimidine], the IC50 is greater than 20000 nM.
Consider `Cc1oc2ccc(OCc3ccccc3)cc2c1-c1cncc(CO)n1` [Cpd 031, {6-[5-(benzyloxy)-2-methyl-1-benzofuran-3-yl]pyrazin-2-yl}methanol], for which the half-maximal inhibitory concentration (IC50) was greater than 20000 nM.
Take `Cc1oc2ccc(OCc3ccccc3)cc2c1-c1nccc(CO)n1` [Cpd 032, {2-[5-(benzyloxy)-2-methyl-1-benzofuran-3-yl]pyrimidin-4-yl}methanol]: the IC50 was greater than 20000 nM.

The term IC50 denotes the concentration that gives 50% inhibition. Low values mean greater potency, high ones weaker potency.

Source of the values: US20250346583A1, “NEW DERIVATIVES FOR TREATING TRPM3 MEDIATED DISORDERS” (Katholieke Universiteit Leuven, priority 2022, published 2025).
